Five molecules from PubChem BioAssay (NCI) can be followed below.

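Interpolation was linear, between the two tested concentrations surrounding the appropriate level; five concentrations were tested over 48 hours in 96-well plates. GI50 marks 50% less growth. Definition used: TGI = concentration required for complete inhibition of growth.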 A value given as a limit tells only on which side of the number the result lay.

Test systems include SK-MEL-5 melanoma; SW-620 colon; M14 melanoma; COLO 205 colon; NCI-H226 lung; MOLT-4 leukemia; OVCAR-4 ovarian; SR leukemia; HS 578T breast; SK-MEL-28 melanoma; BT-549 breast.
Holding throughout (assay): NCI tumour cell line growth inhibition, 48 h

Take `CCOC(=O)NC(=O)c1cn(CCNCCO)c(=O)[nH]c1=O`: the TGI in the assay with SK-MEL-5 melanoma, in the assay with SW-620 colon, in the assay with M14 melanoma, with COLO 205 colon, in the assay on NCI-H226 lung and in the assay with MOLT-4 leukemia was more than 100 µM in each case. Further, the TGI with OVCAR-4 ovarian and in the assay with SR leukemia was more than 100 µM in each case.

As to `OCCCNc1nc(=S)[nH]c2[nH]ncc12`, the GI50 with SK-MEL-5 melanoma was 31.3 µM; in the assay on SW-620 colon it was 44.3 µM; in the assay with HS 578T breast it was 30.7 µM; in the assay on COLO 205 colon it was 29.3 µM; in the assay on NCI-H226 lung, 27.6 µM; in the assay on SK-MEL-28 melanoma it was 57.1 µM. In addition, the GI50 in the assay on BT-549 breast is 46.8 µM; in the assay on OVCAR-4 ovarian, 53.7 µM. For the same molecule, the TGI in the assay on SK-MEL-5 melanoma is more than 100 µM; with SW-620 colon it was more than 100 µM; in the assay with HS 578T breast it was 85.1 µM; with COLO 205 colon it was more than 100 µM; in the assay on NCI-H226 lung, 72.6 µM; in the assay on SK-MEL-28 melanoma, more than 100 µM. In addition, the TGI in the assay with BT-549 breast and in the assay on OVCAR-4 ovarian was more than 100 µM throughout.

On to `COc1ccc(CC2CCc3nc(N)nc(N)c3C2)cc1OC` (configuration not stated), for which the TGI was 18.5 µM with SK-MEL-5 melanoma; more than 100 µM with SW-620 colon; more than 39.5 µM in the assay with M14 melanoma; more than 100 µM with HS 578T breast; 36 µM in the assay on COLO 205 colon; 42.4 µM with NCI-H226 lung. In addition, the TGI with SK-MEL-28 melanoma was more than 100 µM; in the assay on MOLT-4 leukemia, more than 100 µM; in the assay with BT-549 breast it was 51.7 µM; in the assay on OVCAR-4 ovarian, more than 100 µM; in the assay on SR leukemia, more than 100 µM.

For `c1nc(N2CC2)c2cnn(C3CCCCO3)c2n1` (configuration not stated), the TGI with SK-MEL-5 melanoma, in the assay with SW-620 colon, with M14 melanoma, in the assay on HS 578T breast, in the assay on COLO 205 colon and in the assay with NCI-H226 lung was more than 100 µM each time. The TGI in the assay on SK-MEL-28 melanoma, in the assay with MOLT-4 leukemia, in the assay on BT-549 breast, in the assay on OVCAR-4 ovarian and in the assay with SR leukemia was more than 100 µM each time.

Take `O=C(N/N=C/C=C/c1ccccc1)[C@H](O)[C@@H](O)C(=O)N/N=C/C=C/c1ccccc1`: the TGI in the assay with SK-MEL-5 melanoma, in the assay with SW-620 colon, in the assay on COLO 205 colon, in the assay on SK-MEL-28 melanoma, with MOLT-4 leukemia and in the assay with SR leukemia was more than 100 µM throughout.
